Reference: patent US11479565B2, “Process for preparing substituted imidazole derivatives” (BAYER AKTIENGESELLSCHAFT, priority 2018, dated 2022)

What was measured:
[1] = log P[a] by HPLC on reversed-phase column (C18), LC-UV in the acidic range; format: physicochemical; conditions: 0.9 ml/l formic acid in water and 1.0 ml/l formic acid in acetonitrile, gradient 10% to 95% acetonitrile, EEC Directive 79/831 Annex V.A8
Procedure: (§1) The log values were determined according to EEC Directive 79/831 Annex V.A8 by HPLC (high-performance liquid chromatography) on a reversed-phase column (C18) using the following methods: The log P[a] value is determined by LC-UV measurement in the acidic range using 0.9 mill formic acid in water and 1.0 ml/l formic acid in acetonitrile as mobile phases (linear gradient from 10% acetonitrile to 95% acetonitrile). Calibration was carried out using a homologous series of straight-chain alkan-2-ones (having 3 to 16 carbon atoms) with known log values. The values between successive alkanones are determined by linear regression.

[2] = log P[n] by HPLC on reversed-phase column (C18), LC-UV in the neutral range; format: physicochemical; conditions: 79 mg/l ammonium carbonate in water and acetonitrile, gradient 10% to 95% acetonitrile, EEC Directive 79/831 Annex V.A8
Procedure: as §1, with “P[n]” for “P[a]”, “neutral” for “acidic”, “79 mg/l ammonium carbonate” for “0.9 mill formic acid”, “and” for “and 1.0 ml/l formic acid in”

Structure (SMILES) | chromatographic logP [1] | chromatographic logP [2]
CCSc1c(-c2nc3cc(C(F)(F)F)nnc3n2C)nc(Br)n1C [Example 1, 6-[2-bromo-5-(ethylsulfanyl)-1-methyl-1H-imidazol-4-yl]-7-methyl-3-(trifluoromethyl)-7H-imidazo[4,5-]pyridazine] | 3.14 | 3.01
CCSc1c(-c2nc3cc(C(F)(F)C(F)(F)F)nnc3n2C)nc(Br)n1C [Example 2, 6-[2-bromo-5-(ethylsulfanyl)-1-methyl-1H-imidazol-4-yl]-7-methyl-3-(pentafluoroethyl)-7H-imidazo[4,5-c]pyridazine] | 3.8 | 3.66
CCS(=O)(=O)c1c(-c2nc3cc(C(F)(F)C(F)(F)F)nnc3n2C)nc(Br)n1C [Example 3, 6-[2-bromo-5-(ethylsulfonyl)-1-methyl-1H-imidazol-4-yl]-7-methyl-3-(pentafluoroethyl)-7H-imidazo[4,5-c]pyridazine] | 2.8 | 2.76
CCSc1c(-c2nc3cc(C(F)(F)C(F)(F)F)ncc3n2C)nc(Br)n1C [Example 4, 2-[2-bromo-5-(ethylsulfanyl)-1-methyl-1H-imidazol-4-yl]-3-methyl-6-(pentafluoroethyl)-3H-imidazo[4,5-c]pyridine] | 3.63 | 3.51
CCSc1c(-c2nc3cc(C(F)(F)C(F)(F)F)nnc3n2C)nc(-c2ccc(Cl)nn2)n1C [Example 5, 6-[2-(6-chloropyridazin-3-yl)-5-(ethylsulfanyl)-1-methyl-1H-imidazol-4-yl]-7-methyl-3-(pentafluoroethyl)-7H-imidazo[4,5-c]pyridazine] | 4.13 | 4.01
CCSc1c(-c2nc3cc(C(F)(F)C(F)(F)F)nnc3n2C)nc(-c2ccc(C#N)cn2)n1C [Example 6, 6-{5-(ethylsulfanyl)-1-methyl-4-[7-methyl-3-(pentafluoroethyl)-7H-imidazo[4,5-c]pyridazin-6-yl]-1H-imidazol-2-yl}nicotinonitrile] | 4.32 | 4.2
